The record followed here is patent US10351548B2, “2-oxo-1,2-dihydropyridine-3-carboxamide compounds and their use as inhibitors of PDK1” (INTERNATIONAL SOCIETY FOR DRUG DEVELOPMENT S.R.L., priority 2015, dated 2019).

Common to all, as to format: cell-based, human
For test [1], the system named is AKT phosphorylation at Thr308 in U87MG cells. In words: PDK1 activity in U87MG cells, (T308)AKT phosphorylation ELISA. As for the experimental part:
(§1) U87MG cells were cultured in 96-well microplates (5.000 cells/well), and treated for different times with 10 μM SA16, SA23 or IB35. At the end of the treatment period, the GSCs were centrifuged at 500×g for 3 minutes; cells were washed twice using fresh saline, and rapidly fixed with 4% (for adherent U87MG cells) or 8% (for suspension GSCs) formaldehyde to preserve activation of specific protein modification. The activity of PDK1 was assessed measuring the levels of phosphorylated AKT on Thr308, using a specific primary antibodies. The subsequent incubation with a secondary HRP-conjugated antibody and the developing solution allowed the colorimetric quantification of the levels of phosphorylated protein. The relative number of cells in each well was then determined using the Crystal-Violet assay. The results were calculated by subtracting the mean background value from the values obtained under each test condition: values were normalised to the number of cells in each well and were expressed as the percentages of the control (untreated cells) values.
280(4): p. 1107-1115). […] At the end of the treatment periods, the levels of (T308)AKT phosphorylation was evaluated using an ELISA kit, as described above. The data reported in FIG. 5 were expressed as the percentage of phosphorylated (T308)AKT relative to those of untreated cells (control), which were set at 100%, and were the mean values±SEM of three independent experiments performed in triplicate.

Test [2] concerns U87MG cells. In words: U87MG cell proliferation, MTS assay. The note with it: Homo sapiens, U-87 MG, 72 h, MTS assay. As for the experimental part:
(§2) The U87MG cell line was obtained from the National Institute for Cancer Research of Genoa (Italy) and cultured in DMEM 10% FBS and 2 mM glutamine. To isolate GSCs, approximately 2.0×10^6 cells were suspended in 1 mL of a defined serum-free Neural Stem Cell (NSC) medium (Daniele, S., et al., Modulation of A1 and A2B adenosine receptor activity: a new strategy to sensitise glioblastoma stem cells to chemotherapy. Cell death & disease, 2014. 5(11): p. e1539). After 3-4 days of culture, the neurospheres were collected, suspended in NSC medium, dissociated into single cells, and plated for the assays. For the long-term treatment of cells, NSC or complete medium containing drugs was replaced every two to three days.
(§3) The human U87MG cells or GSCs were seeded at a density of 3×10^3 cells/well. After 24 h, the cells were treated from one to seven days with fresh growth medium containing different concentrations of SA16, SA23 or IB35. Following the treatment period, cell proliferation was determined using the MTS assay according to manufacturer's instruction. The absorbance of formazan at […] was measured in a colorimetric assay with an automated plate reader (Victor Wallac 2, Perkin Elmer). The results were calculated by subtracting the mean background from the values obtained from each evaluation and were expressed as the percentage of the control (untreated cells). Sigmoid dose-response curve was generated, from which the IC50 values were derived.
As representative GBM cell line, the above U87MG cells were used; this human cell line resulted an appropriate model to study the effects of PDK1 inhibition, because it is deficient for the tumour suppressor phosphatase and tensin homologue (PTEN), a negative regulator of the PI3K/AKT pathway (Wang, S. I., et al., Somatic mutations of PTEN in glioblastoma multiforme. Cancer research, 1997. 57(19): p. 4183-4186). To examine the effects of SA16, SA23 and IB35 on GBM cell growth/survival, U87MG cells were incubated with different concentrations of the new compounds (1 nM-10 μM) for 24 and 72 h. Specifically, U87MG cells were treated in complete medium with different concentrations of SA16, SA23 or IB35 (1 nM-10 μM) for 24 h (A) or 72 h (B). At the end of treatment, cell proliferation was measured using the MTS assay. The data are expressed as a percentage with respect to that of untreated cells (control), which was set to 100%, and are the mean values±SEM of three independent experiments, each performed in duplicate. The significance of the differences reported in FIGS. 1 and 2 was determined with a one-way ANOVA with Bonferroni post-test (* p<0.05, **p<0.01, *** p<0.001 vs. control cells).
For orientation: Formazan colour is commonly taken as a measure of viable cells.

Test [3] has as its system GSCs isolated from U87MG cells. In words: GSC proliferation, MTS assay. The conditions noted are these: Homo sapiens, U-87 MG, 168 h; seven days of treatment, MTS assay. As for the experimental part: as §2, §3
The inhibition of PDK1 has been reported as potentially effective therapeutic approach to reduce self-renewal and propagation of GSCs (Signore, M., et al., Combined PDK1 and CHK1 inhibition is required to kill glioblastoma stem-like cells in vitro and in vivo. Cell death & disease, 2014. 5(5): p. e1223). On this basis, the effects of SA16, SA23 and IB35 on GSCs, isolated from U87MG cells as previously reported, were evaluated (Daniele, S., et al., Modulation of A1 and A28 adenosine receptor activity: a new strategy to sensitise glioblastoma stem cells to chemotherapy. Cell death & disease, 2014. 5(11): p. e1539). U87MG-derived GSCs were incubated with the indicated concentrations of IB35, SA23 or SA16 for four days (FIG. 8) or seven days (FIG. 9). At the end of the treatment periods, cell proliferation was measured using the MTS assay. The data were expressed as a percentage with respect to that of untreated cells (control), which was set to 100%, and are the mean values±SEM of three independent experiments, each performed in duplicate. IC50 values after seven days of treatment were calculated from sigmoid dose-response curve (FIG. 9). The significance of the differences was determined with a one-way ANOVA with Bonferroni post-test (** p<0.01, *** p<0.001 vs. control).

The test system of test [4] is U87MG cells. In words: Annexin V and 7-AAD staining in U87MG cells (apoptosis). The conditions noted are these: 10 μM, 72 h. The method, then:
Dual staining with Annexin V coniugated to fluorescein-isothiocyanate (FITC) and 7-amino-actinomysin (7-AAD) was performed using the commercially available kit (Muse Annexin V and Dead Cell Kit; Merck KGaA, Darmstadt, Germany). U87MG cells or GSCs were treated with DMSO (control), SA16, SA23 or IB35 for 72 h or seven days, respectively. At the end of the treatment periods, the percentages of living, apoptotic and dead cells were acquired and analysed by Muse™ Cell Analyzer as previously described (Daniele, S., et al., Combined inhibition of AKT/mTOR and MDM2 enhances Glioblastoma Multiforme cell apoptosis and differentiation of cancer stem cells. Sci. Rep., 2015. 5.).
It was then investigated whether the reduction in cell proliferation elicited by the PDK1 inhibitors could be associated with apoptosis. U87MG cells were treated for 72 h with DMSO (control), or 10 μM SA16, SA23 or IB35. At the end of the treatment period, the cells were collected, and the level of phosphatidylserine externalisation was evaluated using the Annexin V-staining protocol, as described above (FIG. 3). In FIG. 4 the data are expressed as the percentage of apoptotic cells (the data for the early-stage apoptotic cells shown in white, and the data for the late-stage apoptotic/necrotic cells shown in grey) versus the total number of cells. The data shown represented the mean±SEM of three different experiments. The significance of the differences was determined with a one-way ANOVA with Bonferroni post-test (*** p<0.001 vs. control).

For test [5], the system named is AKT phosphorylation at Thr308 in GSCs. In words: PDK1 activity in GSCs, (T308)AKT phosphorylation ELISA. As for the experimental part: as §1
The effects of the new compounds on PDK1 activity were investigated by ELISA assays also in GSCs. U87MG-derived CSCs were treated for the indicated times (0-120 min) with NSC medium containing DMSO (control), or 10 μM IIB35, SA23 or SA16. At the end of the treatment periods, the levels of AKT phosphorylation on Thr308 were evaluated using an ELISA assay, as above described. The data were expressed as the percentage of phosphorylated AKT relative to those of untreated cells (control), which were set at 100%, and were the mean values±SEM of three independent experiments performed in triplicate. The data are represented in FIG. 12. The significance of differences was performed using one-way ANOVA with Bonferroni post-test (* p<0.05, ** p<0.01, *** p<0.001 vs. control).
For orientation: ELISA stands for enzyme-linked immunosorbent assay.

Like-named read-outs stand apart in the source and are kept apart here.

In the case of `O=C1Nc2ccc(NC(=O)[C@H](NC(=O)c3cccn(Cc4ccc(F)c(F)c4)c3=O)c3ccccc3)cc2/C1=C/c1cnc[nH]1` [SA16, (Z)—(R)—N-(2-((3-((1H-imidazol-5-yl)methylene)-2-oxoindolin-5-yl)amino)-2-oxo-1-phenylethyl)-1-(3,4-difluorobenzyl)-2-oxo-1,2-dihydropyridine-3-carboxamide], the inhibition (commonly the change of the read-out against control, counted positive when it falls) at 10 µM in test [1] (Homo sapiens, U-87 MG, U87MG cells, read-out: peak of inhibition (percentage of PDK1 inhibition)) amounted to 33.3 ± 4.5%; in test [5] (Homo sapiens, read-out: peak of inhibition (percentage of PDK1 inhibition)) it was 74.8 ± 3%. Further, the “inhibition of AKT phosphorylation at Thr308” value is “biphasic kinetic” in test [1] (U87MG, 10 μM, 0-120 min) and “biphasic kinetic” in test [5] (10 μM, 0-120 min). Further, the IC50 in the test with U87MG cells [2] (read-out: IC50 U87MG) is 2050 ± 190 nM; in the test with U87MG cells [2] (read-out: IC50 U87MG cell proliferation), 2050 ± 190 nM; in test [3] it was 5.47 ± 0.1 nM. Further, the “phosphatidylserine externalization (early and late apoptosis/death)” value with U87MG cells [4] is on record as “significant phosphatidylserine externalization”.
